# From US4424225A, “Thienobenzodiazepinones, pharmaceutical compositions thereof and method of use thereof” (Dr. Karl Thomae GmbH, priority 1982, dated 1984)
# Key:
# [1] = system: oxotremorine-induced lesions in the mucous membrane of the stomach (muscarinic receptors); assay: Oxotremorine test: protection against oxotremorine-induced lesions of the gastric mucous membrane; format: in vivo, rat (female albino, Crl: COBS-CD (SD) BR); conditions: Rattus norvegicus, iv, 15 minutes before oxotremorine 0.62 mg/kg i.v., neostigmine 1 mg/kg oral
# Experimental: (§1) Oxotremorine, a specific agonist for muscarinic receptors, produces lesions in the mucous membrane of the stomach in rats and increases their secretion of saliva. This test method was chosen so that any selective activity of an anti-muscarinic substance on the stomach could be identified.
# Ten female albino rats (of the Crl: COBS-CD (SD) BR strain) with a body weight of from 120 to 150 gm apiece were used in each treatment group and were kept without food for 24 hours before the start of the test but given free access to drinking water. […]
# (§2) Each antimuscarinic substance was administered intravenously in uniformly graduated doses 15 minutes before the oxotremorine was administered. Control groups were given corresponding quantities of the solvent and suspension agent instead of the test substance. […]
# (§3) The ED50 values were determined using the method described by LITCHFIELD and WILCOXON (J. Pharmacol. Exp. Ther. 96, 99, 1949).
# The effects on lesions of the mucous membrane of the stomach were evaluated as follows:
# The lesions of the gastric mucous membrane were produced by intravenous injection of 0.62 mg/kg of oxotremorine 30 minutes after oral administration of 1 mg/kg of neostigmine (a cholinesterase inhibitor). […] The protective effect of the test substances was expressed as the percentage inhibition (percentage of animals without lesions). […]
# Testing for mydriasis = conditions: rat, in vivo, iv; pupil observed for 10 minutes
# Experimental: The effect of the test substances on the pupil size in rats was investigated as follows:
# The substances were administered intravenously to groups of 10 animals in at least three uniformly graduated doses. The pupil size was then observed for 10 minutes to see if there were any changes (mydriasis or miosis). […] The percentage of test animals in which mydriasis occurred was determined. The ED50 values were again determined using the method of LITCHFIELD and WILCOXON (see above).
# [2] = Oxotremorine test: inhibition of oxotremorine-induced secretion of saliva; parameters: species or system rat (female albino, Crl: COBS-CD (SD) BR); conditions: rat, in vivo, iv, 15 minutes before oxotremorine 0.083 mg/kg i.v.; read-out: Oxotremorine Test, Inhibition of Salivation ED50
# Experimental: as §1
# Ten female albino rats (of the Crl: COBS-CD (SD) BR strain) with a body weight of from 120 to 150 gm apiece were used in each treatment group and were kept without food for 24 hours before the start of the test but given free access to drinking water.
# To determine, in preliminary tests, the muscarinic effect of oxotremorine on each of the symptoms studied, a dosage/activity curve was drawn up with at least three dosages for each symptom.
# When the antimuscarinic substances were tested, the dosage of oxotremorine which triggered the symptom in question in 90 to 100% of the animals in the preliminary tests was used.
# Secretion of saliva: 0.083 mg/kg i.v.
# as §2, §3
# [3] = molecular target: muscarinic receptors (cerebral cortex); assay: Binding to muscarinic receptors, displacement of 3H-N-methylscopolamine, cerebral cortex; parameters: species or system rat (male Sprague-Dawley); conditions: 0.3 n molar 3H-NMS, 30° C., 45 minutes, pH 7.4, read-out: Receptor Binding Tests IC50, Cortex
# Experimental: (§4) 3. STUDIES OF BINDING TO MUSCARINIC RECEPTORS: DETERMINATION OF THE IC50 VALUE
# (§5) The organ donors were male Sprague-Dawley rats with a body weight of from about 180 to 220 gm each. After the heart, stomach, and cerebral cortex had been removed, the remainder of the operation was carried out in ice-cold Hepes-HCl buffer (pH 7.4; 100 m molar NaCl, 10 m molar MgCl2). The smooth muscle of the fundus of the stomach was separated from the mucous membrane of the stomach and subjected to preliminary homogenization. The whole heart was cut up with scissors. All the organs were then homogenized in a Potter apparatus.
# (§6) For the binding test, the homogenized organs were diluted as follows:
# (§7) The homogenized organ preparations were incubated at a specific concentration of the radioligand and with a series of concentrations of the non-radioactive test substances in an Eppendorf centrifuge tube at 30° C. The duration of incubation was 45 minutes. The substance 0.3 n molar ^3 H-N-methylscopolamine (^3 H-NMS) was used as the radioligand. After incubation had been brought to an end by centrifuging at 14000 g, the radioactivity in the pellet was determined. […] The proportion of non-specific binding was defined as the radioactivity which was bound in the presence of 1μ molar quinuclidinylbenzylate. […] The IC50 values of the non-labelled test substances were determined graphically. […]
# [4] = molecular target: T1, muscarinic receptors (smooth muscle of the fundus of the stomach) (Rattus norvegicus, UniProt P10980); assay: Binding to muscarinic receptors, displacement of 3H-N-methylscopolamine, smooth muscle of the fundus of the stomach; parameters: species or system rat (male Sprague-Dawley); conditions: 0.3 n molar 3H-NMS, 30° C., 45 minutes, pH 7.4, read-out: Receptor Binding Tests IC50, Smooth Muscle Fundus of Stomach
# T1 construct: The smooth muscle of the fundus of the stomach was separated from the mucous membrane of the stomach; from tissue; host or cells: homogenized smooth muscle of the stomach fundus of male Sprague-Dawley rats
# T1 sequence (P10980 1-466): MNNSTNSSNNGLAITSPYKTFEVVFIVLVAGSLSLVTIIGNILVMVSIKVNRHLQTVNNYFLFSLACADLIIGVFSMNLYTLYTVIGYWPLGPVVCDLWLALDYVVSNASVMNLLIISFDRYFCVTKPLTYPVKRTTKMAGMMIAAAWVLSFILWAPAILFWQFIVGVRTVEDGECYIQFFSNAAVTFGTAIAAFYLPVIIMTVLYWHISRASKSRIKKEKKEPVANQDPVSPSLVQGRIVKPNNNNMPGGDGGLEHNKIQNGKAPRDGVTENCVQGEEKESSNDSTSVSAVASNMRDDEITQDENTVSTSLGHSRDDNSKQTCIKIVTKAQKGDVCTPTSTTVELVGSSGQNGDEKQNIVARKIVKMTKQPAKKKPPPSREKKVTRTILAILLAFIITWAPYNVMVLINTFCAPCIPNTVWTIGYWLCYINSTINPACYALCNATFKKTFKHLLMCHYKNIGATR
# Experimental: as §4, §5, §6
# Smooth muscle of the fundus of the stomach: 1:100
# as §7, with “The substance 0.3 n molar ^3 H-N-methylscopolamine (^3 H-NMS) was used as the radioligand.” left out
smiles,measurement,setting,value
"CN1CCC(CC(=O)N2c3ccccc3NC(=O)c3cscc32)CC1 [A, 4,9-Dihydro-4-[(1-methyl-4-piperidinyl)acetyl]-10H-thieno[3,4-b][1,5]benzodiazepin-10-one]",ED50,"[1]; read-out: Oxotremorine Test, Anti-ulcerative Effect ED50",0.0078 mg/kg
same,ED70,"[1]; read-out: Oxotremorine Test, Anti-ulcerative Effect ED70",0.014 mg/kg
same,ED50 at 10 min,Testing for mydriasis,0.03 mg/kg
same,ED50 at 0.25 h,[2],0.0215 mg/kg
same,IC50,[3],0.02 µM
same,IC50,[4],0.075 µM
